Results: PubChem BioAssay (NCI)
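In this assay, cells in 96-well plates receive the compound at five concentrations for 48 hours. Endpoints are linearly interpolated between the surrounding concentrations. The concentration for full growth arrest is given as TGI.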

Each compound was assayed on OVCAR-8 ovarian (assay: inhibition of tumour cell growth, NCI panel, 48 h).
Compound `O=C(NC(Cc1c[nH]c2ccccc12)C(=O)Nc1ccc(Br)cc1)OCc1ccccc1` (centres undefined) has a TGI of 30.3 µM.
`CCOC(=O)C1(C#N)C(c2ccccc2)CC(O)(c2ccc(OC)cc2)C(C(=O)c2ccc(OC)cc2)C1c1ccccc1` (centres undefined) was tested, and the TGI was over 100 µM.
Compound `COc1ccc(C2C(Cl)C(=O)N2n2cnc3ccccc3c2=O)cc1` (centres undefined) has a TGI of over 100 µM.
In the case of `Cc1cc(N)c(C)c2c1[nH]c1ccc(O)cc12`, the TGI is reported as over 100 µM.
With `CCOC(=O)C1=C(C)N(Cc2ccc(Cl)cc2Cl)C2(O)C=CC(=O)C3C(=O)N(c4ccccc4)C(=O)C132` (centres undefined) the TGI was 7.89 µM.
`COC(=O)c1cc2c3c(ccc2[nH]1)N(C(=O)c1cc2cc(OC)c(OC)c(OC)c2[nH]1)CC3CCl` (centres undefined) gave a TGI of over 100 µM.
With `CC(=O)c1cccc(NC(=O)C(=O)NNc2n[nH]c(=S)n2N)c1` the TGI was 24.1 µM.
`COC(=O)c1ccc(C(=O)NC(Cc2ccc(Oc3cc(CC(NC(=O)c4ccccc4C(=O)OC)C(=O)OC)ccc3OC)cc2)C(=O)OC)cc1` (centres undefined) gave a TGI of over 100 µM.
Compound `COc1cc2cc3c4c(cc(OC)c(OC)c4c2cc1OC)CCN3C(=O)OCCN1CCNCC1` has a TGI of 29.7 µM.
Compound `O=c1[nH]c2c(nc1NC13CC4CC(CC(C4)C1)C3)c(=O)oc1ccccc12` has a TGI of over 100 µM.
Work on `COc1cc(C(Cc2ccccc2)NC(C)=O)oc(=O)c1` (centres undefined) yielded a TGI of over 100 µM.
Compound `CS(=O)(=O)O[C@H]1CN2C[C@@H](O)[C@@H](O)[C@H]2[C@H]1CO` has a TGI of over 100 µM.
`C=C(CCC/C(C)=C/C=C/[C@]1(C)CCCc2ccoc21)CC(=O)O` showed a TGI of over 100 µM.
Work on `COC(=O)CCC1=CCC2(SC)C(=O)Nc3cccc1c32` (centres undefined) yielded a TGI of over 100 µM.
With `CCCN=C(N)NC#N` the TGI was over 100 µM.
With `Nc1ccc2c(c1)N(C(=O)c1cc3cc(NC(=O)c4cc5ccccc5o4)ccc3[nH]1)CC2CCl` (centres undefined) the TGI was 1.45 µM.
In the case of `O=c1[nH]c(=O)n(C2OC(CO)C(O)C2O)cc1NN=NCc1ccccc1` (centres undefined), the TGI is reported as over 100 µM.
`CCCCC1=NNC(=O)C1` showed a TGI of over 100 µM.

These compounds were tested on PC-3 prostate (assay: inhibition of tumour cell growth, NCI panel, 48 h).
Compound `O=C(NC(Cc1c[nH]c2ccccc12)C(=O)Nc1ccc(Br)cc1)OCc1ccccc1` (centres undefined) has a TGI of 24.5 µM.
`CCCCCCCCCC1(N=[N+]=[N-])C(=O)c2ccccc2N(C)C1=O` (centres undefined) showed a TGI of over 100 µM.
`CCOC(=O)C1=C(C)N(Cc2ccc(Cl)cc2Cl)C2(O)C=CC(=O)C3C(=O)N(c4ccccc4)C(=O)C132` (centres undefined) gave a TGI of 3.55 µM.
Work on `COC(=O)c1cc2c3c(ccc2[nH]1)N(C(=O)c1cc2cc(OC)c(OC)c(OC)c2[nH]1)CC3CCl` (centres undefined) yielded a TGI of over 100 µM.
With `CC(=O)c1cccc(NC(=O)C(=O)NNc2n[nH]c(=S)n2N)c1` the TGI was 23 µM.
In the case of `COC(=O)c1ccc(C(=O)NC(Cc2ccc(Oc3cc(CC(NC(=O)c4ccccc4C(=O)OC)C(=O)OC)ccc3OC)cc2)C(=O)OC)cc1` (centres undefined), the TGI is reported as over 100 µM.
In the case of `CS(=O)(=O)O[C@H]1CN2C[C@@H](O)[C@@H](O)[C@H]2[C@H]1CO`, the TGI is reported as over 100 µM.
`C=C(CCC/C(C)=C/C=C/[C@]1(C)CCCc2ccoc21)CC(=O)O` gave a TGI of over 100 µM.
`COC(=O)CCC1=CCC2(SC)C(=O)Nc3cccc1c32` (centres undefined) showed a TGI of over 100 µM.
In the case of `CCCCc1c(N(C)C)c(OC(C)=O)c(-c2cn(C)c3ccccc23)oc1=O`, the TGI is reported as 50.9 µM.
`Nc1ccc2c(c1)N(C(=O)c1cc3cc(NC(=O)c4cc5ccccc5o4)ccc3[nH]1)CC2CCl` (centres undefined) gave a TGI of 12.2 µM.
`CCCCC1=NNC(=O)C1` showed a TGI of over 100 µM.

The compounds below were run on SK-MEL-5 melanoma (assay: inhibition of tumour cell growth, NCI panel, 48 h).
With `CC1(C)COC(c2cccnc2/C=N/O)=N1` the TGI was over 100 µM.
`CC(C)C(=O)[C@@]1(C)SC[C@H]2CCN=C21` was tested, and the TGI was over 100 µM.
Work on `O=C(NC(Cc1c[nH]c2ccccc12)C(=O)Nc1ccc(Br)cc1)OCc1ccccc1` (centres undefined) yielded a TGI of 22.5 µM.
With `CCCCCCCCCC1(N=[N+]=[N-])C(=O)c2ccccc2N(C)C1=O` (centres undefined) the TGI was 26.6 µM.
`CCOC(=O)C1(C#N)C(c2ccccc2)CC(O)(c2ccc(OC)cc2)C(C(=O)c2ccc(OC)cc2)C1c1ccccc1` (centres undefined) was tested, and the TGI was over 100 µM.
Compound `COc1ccc(C2C(Cl)C(=O)N2n2cnc3ccccc3c2=O)cc1` (centres undefined) has a TGI of over 100 µM.
`CCOC(=O)C1=C(C)N(Cc2ccc(Cl)cc2Cl)C2(O)C=CC(=O)C3C(=O)N(c4ccccc4)C(=O)C132` (centres undefined) was tested, and the TGI was 8.57 µM.
`COC(=O)c1cc2c3c(ccc2[nH]1)N(C(=O)c1cc2cc(OC)c(OC)c(OC)c2[nH]1)CC3CCl` (centres undefined) was tested, and the TGI was over 100 µM.
`CC(=O)c1cccc(NC(=O)C(=O)NNc2n[nH]c(=S)n2N)c1` gave a TGI of 2.6 µM.
`Cc1cc2c(cc1Cl)SC(NS(=O)(=O)c1ccc(Cl)cc1)=NS2(=O)=O` was tested, and the TGI was over 100 µM.
In the case of `COc1cc2cc3c4c(cc(OC)c(OC)c4c2cc1OC)CCN3C(=O)OCCN1CCNCC1`, the TGI is reported as 28.2 µM.
Work on `O=c1[nH]c2c(nc1NC13CC4CC(CC(C4)C1)C3)c(=O)oc1ccccc12` yielded a TGI of over 100 µM.
Work on `COc1cc(C(Cc2ccccc2)NC(C)=O)oc(=O)c1` (centres undefined) yielded a TGI of over 100 µM.
Compound `CS(=O)(=O)O[C@H]1CN2C[C@@H](O)[C@@H](O)[C@H]2[C@H]1CO` has a TGI of over 100 µM.
`C=C(CCC/C(C)=C/C=C/[C@]1(C)CCCc2ccoc21)CC(=O)O` was tested, and the TGI was over 100 µM.
Work on `COC(=O)CCC1=CCC2(SC)C(=O)Nc3cccc1c32` (centres undefined) yielded a TGI of over 100 µM.
`CCCCc1c(N(C)C)c(OC(C)=O)c(-c2cn(C)c3ccccc23)oc1=O` showed a TGI of 26.8 µM.
Work on `CCCN=C(N)NC#N` yielded a TGI of over 100 µM.
In the case of `O=c1[nH]c(=O)n(C2OC(CO)C(O)C2O)cc1NN=NCc1ccccc1` (centres undefined), the TGI is reported as over 100 µM.
`CCCCC1=NNC(=O)C1` gave a TGI of over 100 µM.

What follows are compounds tested on SNB-19 CNS (assay: inhibition of tumour cell growth, NCI panel, 48 h).
`CC1(C)COC(c2cccnc2/C=N/O)=N1` was tested, and the TGI was over 100 µM.
Compound `CC(C)C(=O)[C@@]1(C)SC[C@H]2CCN=C21` has a TGI of over 100 µM.
Compound `O=C(NC(Cc1c[nH]c2ccccc12)C(=O)Nc1ccc(Br)cc1)OCc1ccccc1` (centres undefined) has a TGI of 90.8 µM.
Work on `CCCCCCCCCC1(N=[N+]=[N-])C(=O)c2ccccc2N(C)C1=O` (centres undefined) yielded a TGI of over 100 µM.
`CCOC(=O)C1(C#N)C(c2ccccc2)CC(O)(c2ccc(OC)cc2)C(C(=O)c2ccc(OC)cc2)C1c1ccccc1` (centres undefined) showed a TGI of over 100 µM.
`COc1ccc(C2C(Cl)C(=O)N2n2cnc3ccccc3c2=O)cc1` (centres undefined) gave a TGI of over 100 µM.
Work on `Cc1cc(N)c(C)c2c1[nH]c1ccc(O)cc12` yielded a TGI of over 100 µM.
For `CCOC(=O)C1=C(C)N(Cc2ccc(Cl)cc2Cl)C2(O)C=CC(=O)C3C(=O)N(c4ccccc4)C(=O)C132` (centres undefined), the TGI was 3.73 µM.
With `COC(=O)c1cc2c3c(ccc2[nH]1)N(C(=O)c1cc2cc(OC)c(OC)c(OC)c2[nH]1)CC3CCl` (centres undefined) the TGI was over 100 µM.
`CC(=O)c1cccc(NC(=O)C(=O)NNc2n[nH]c(=S)n2N)c1` was tested, and the TGI was 21.2 µM.
With `COC(=O)c1ccc(C(=O)NC(Cc2ccc(Oc3cc(CC(NC(=O)c4ccccc4C(=O)OC)C(=O)OC)ccc3OC)cc2)C(=O)OC)cc1` (centres undefined) the TGI was over 100 µM.
Work on `Cc1cc2c(cc1Cl)SC(NS(=O)(=O)c1ccc(Cl)cc1)=NS2(=O)=O` yielded a TGI of over 100 µM.
`COc1cc2cc3c4c(cc(OC)c(OC)c4c2cc1OC)CCN3C(=O)OCCN1CCNCC1` gave a TGI of 43.3 µM.
`O=c1[nH]c2c(nc1NC13CC4CC(CC(C4)C1)C3)c(=O)oc1ccccc12` showed a TGI of over 100 µM.
In the case of `COc1cc(C(Cc2ccccc2)NC(C)=O)oc(=O)c1` (centres undefined), the TGI is reported as over 100 µM.
Work on `CS(=O)(=O)O[C@H]1CN2C[C@@H](O)[C@@H](O)[C@H]2[C@H]1CO` yielded a TGI of over 100 µM.
`C=C(CCC/C(C)=C/C=C/[C@]1(C)CCCc2ccoc21)CC(=O)O` gave a TGI of over 100 µM.
With `COC(=O)CCC1=CCC2(SC)C(=O)Nc3cccc1c32` (centres undefined) the TGI was over 100 µM.
`CCCCc1c(N(C)C)c(OC(C)=O)c(-c2cn(C)c3ccccc23)oc1=O` showed a TGI of 90.3 µM.
In the case of `CCCN=C(N)NC#N`, the TGI is reported as over 100 µM.
Work on `Nc1ccc2c(c1)N(C(=O)c1cc3cc(NC(=O)c4cc5ccccc5o4)ccc3[nH]1)CC2CCl` (centres undefined) yielded a TGI of 16.1 µM.
Compound `O=c1[nH]c(=O)n(C2OC(CO)C(O)C2O)cc1NN=NCc1ccccc1` (centres undefined) has a TGI of over 100 µM.

These compounds were tested on SNB-75 CNS (assay: inhibition of tumour cell growth, NCI panel, 48 h).
`CC1(C)COC(c2cccnc2/C=N/O)=N1` was tested, and the TGI was over 100 µM.
Work on `O=C(NC(Cc1c[nH]c2ccccc12)C(=O)Nc1ccc(Br)cc1)OCc1ccccc1` (centres undefined) yielded a TGI of 34.7 µM.
`CCCCCCCCCC1(N=[N+]=[N-])C(=O)c2ccccc2N(C)C1=O` (centres undefined) showed a TGI of over 100 µM.
For `CCOC(=O)C1(C#N)C(c2ccccc2)CC(O)(c2ccc(OC)cc2)C(C(=O)c2ccc(OC)cc2)C1c1ccccc1` (centres undefined), the TGI was 95.3 µM.
For `COc1ccc(C2C(Cl)C(=O)N2n2cnc3ccccc3c2=O)cc1` (centres undefined), the TGI was 86.2 µM.
Compound `COC(=O)c1cc2c3c(ccc2[nH]1)N(C(=O)c1cc2cc(OC)c(OC)c(OC)c2[nH]1)CC3CCl` (centres undefined) has a TGI of over 100 µM.
With `CC(=O)c1cccc(NC(=O)C(=O)NNc2n[nH]c(=S)n2N)c1` the TGI was 25.2 µM.
`COC(=O)c1ccc(C(=O)NC(Cc2ccc(Oc3cc(CC(NC(=O)c4ccccc4C(=O)OC)C(=O)OC)ccc3OC)cc2)C(=O)OC)cc1` (centres undefined) showed a TGI of over 100 µM.
`Cc1cc2c(cc1Cl)SC(NS(=O)(=O)c1ccc(Cl)cc1)=NS2(=O)=O` gave a TGI of over 100 µM.
For `COc1cc2cc3c4c(cc(OC)c(OC)c4c2cc1OC)CCN3C(=O)OCCN1CCNCC1`, the TGI was 27.5 µM.
`O=c1[nH]c2c(nc1NC13CC4CC(CC(C4)C1)C3)c(=O)oc1ccccc12` gave a TGI of over 100 µM.
`COc1cc(C(Cc2ccccc2)NC(C)=O)oc(=O)c1` (centres undefined) was tested, and the TGI was over 100 µM.
With `C=C(CCC/C(C)=C/C=C/[C@]1(C)CCCc2ccoc21)CC(=O)O` the TGI was over 100 µM.
`COC(=O)CCC1=CCC2(SC)C(=O)Nc3cccc1c32` (centres undefined) showed a TGI of over 100 µM.
`CCCCc1c(N(C)C)c(OC(C)=O)c(-c2cn(C)c3ccccc23)oc1=O` gave a TGI of 86 µM.
With `CCCN=C(N)NC#N` the TGI was over 100 µM.
In the case of `Nc1ccc2c(c1)N(C(=O)c1cc3cc(NC(=O)c4cc5ccccc5o4)ccc3[nH]1)CC2CCl` (centres undefined), the TGI is reported as 0.469 µM.
